# Patent US6911418B2, “Method for treating a subterranean formation” (Schlumberger Technology Corporation, priority 2001, dated 2005)
# Test: pH resulting from the aqueous mixture
# Assay type: physicochemical
# Conditions: 20 percent tetrasodium, 28 percent dipotassium, 21 percent diammonium mixtures
# Description: Calcium carbonate was stirred into each mixture until saturation was achieved. The amount of calcium carbonate dissolution was then determined by inductively coupled plasma.
substance,measurement,value
tetrasodium ethylenediamine tetraacetate,pH of aqueous mixture,about 12
